According to patent US10383859B2, “Benzo[d]thiazole derivative or salt thereof, and pharmaceutical composition including same” (Yuhan Corporation, priority 2016, dated 2019):

System: A549 cells
Experiment: Cell migration assay (24-well transwell, laminin)
Type: cell-based, human
Conditions: Homo sapiens, A549, 6 h, laminin 10 μg/mL in lower well, test compounds 0.39˜100 μM, migrated cells counted, read-out: Inhibitory activity against cell migration
Procedure: Cell migration was measured with a 24-well transwell having a polycarbonate membrane (8.0 μm pore size, Costar) at the bottom of the upper chamber. Each lower well was treated with laminin (10 μg/mL) and test compounds in predetermined concentrations (0.39˜100 μM) along with a serum-free RPMI1640 medium. A549 cells (Korean Cell Line Bank) were suspended in a serum-free RPMI1640 medium at a concentration of 1×10^6 cells/mL and then the test compounds were added thereto at the indicated concentrations. Each resulting solution (100 μL) was added to the upper chamber. The cells were cultured at 37° C. for 6 hours in a CO2 incubator. The upper chamber was taken out and then the cells were fixed with PBS containing 70% methyl alcohol for 10 minutes, followed by washing with PBS twice. The cells were stained with hematoxylin (Sigma) for 10 minutes and then washed with distilled water. The non-migrated cells were removed from the upper portion of the polycarbonate membrane with a cotton swab. The membranes were excised and separated from the chamber, and then mounted to a slide using a gel mount reagent (Biomeda, USA). The migrated cells (attached to the lower face of the membrane) were counted at three randomly selected sites under a microscope (×20). The cell counting was performed with the Image J program. From the counted cell numbers, each IC50 value was calculated by non-linear regression curve fit using the “GraphPad Prism” program.
The cells are pulled by laminin residing in the lower chamber and then passed through the polycarbonate membrane, so as to attach to the lower face of the membrane.

IC50 | Structure (SMILES)
> 10 µM | COc1ccc(CCN(c2nc3c(F)cc(F)cc3s2)C(C)c2ccc(C(=O)O)cc2)cc1 (stereo not drawn) [Example 114, 4-(1-{(4,6-difluorobenzo[d]thiazol-2-yl)[2-(4-methoxyphenyl)ethyl]amino}ethyl)benzoic acid]
< 1 µM | COc1ccc(CCN(Cc2ccc(C(=O)O)cc2)c2nc3ccc(F)c(F)c3s2)cc1 [Example 90, 4-({(6,7-difluorobenzo[d]thiazol-2-yl)-[2-(4-methoxyphenyl)ethyl]amino}methyl)benzoic acid]
< 1 µM | COc1ccc(CCN(c2nc3cc(C(F)(F)F)ccc3s2)C(C)c2ccc(C(=O)O)cc2)cc1 (stereo not drawn) [Example 124, 4-(1-{[2-(4-methoxyphenyl)ethyl][5-(trifluoromethyl)benzo[d]thiazol-2-yl]amino}ethyl)benzoic acid]
< 1 µM | COc1ccc(CCN(Cc2ccc(C(=O)O)c(O)c2)c2nc3cccc(F)c3s2)cc1 [Example 77, 4-({(7-fluorobenzo[d]thiazol-2-yl)[2-(4-methoxyphenyl)ethyl]amino}methyl)-2-hydroxybenzoic acid]
< 1 µM | COc1ccc(CCN(Cc2ccc(C(=O)O)cc2)c2nc3cccc(C(F)(F)F)c3s2)cc1 [Example 89, 4-{[[2-(4-methoxyphenyl)ethyl](7-trifluoromethyl-benzo[d]thiazol-2-yl)amino]methyl}benzoic acid]
< 1 µM | COc1ccc(CCN(Cc2ccc(C(=O)O)cc2)c2nc3ccc(F)cc3s2)cc1 [Example 92, 4-({(6-fluorobenzo[d]thiazol-2-yl)[2-(4-methoxyphenyl)ethyl]amino}methyl)benzoic acid]
< 1 µM | COc1ccc(CCN(Cc2ccc(C(=O)O)cc2)c2nc3ccc(C)c(F)c3s2)cc1 [Example 94, 4-({(7-fluoro-6-methyl-benzo[d]thiazol-2-yl)[2-(4-methoxyphenyl)ethyl]amino}methyl)benzoic acid]
< 1 µM | COc1ccc(CCN(Cc2ccc(C(=O)O)cc2)c2nc3cc(F)cc(F)c3s2)cc1 [Example 93, 4-({(5,7-difluorobenzo[d]thiazol-2-yl)[2-(4-methoxyphenyl)ethyl]amino}methyl)benzoic acid]
> 10 µM | COc1ccc(CCN(c2nc3cccc(C)c3s2)C(C)c2ccc(C(=O)O)cc2)cc1 (stereo not drawn) [Example 110, 4-(1-{[2-(4-methoxyphenyl)ethyl](7-methyl-benzo[d]thiazol-2-yl)amino}ethyl)benzoic acid]
> 10 µM | COc1ccc(CCN(c2nc3cc(F)c(F)cc3s2)C(C)c2ccc(C(=O)O)cc2)cc1 (stereo not drawn) [Example 100, 4-(1-{(5,6-difluorobenzo[d]thiazol-2-yl)[2-(4-methoxyphenyl)ethyl]amino}ethyl)benzoic acid]
> 10 µM | CCC(c1ccc(C(=O)O)cc1)N(CCc1c(F)cc(OC)cc1F)c1nc2cccc(F)c2s1 (stereo not drawn) [Example 75, 4-(1-{[2-(2,6-difluoro-4-methoxyphenyl)ethyl](7-fluorobenzo[d]thiazol-2-yl)amino}propyl)benzoic acid]
> 10 µM | COc1ccc(CCN(Cc2ccc(C(=O)O)cc2)c2nc3ccc(C(F)(F)F)c(F)c3s2)cc1 [Example 121, 4-({[7-fluoro-6-(trifluoromethyl)benzo[d]thiazol-2-yl][2-(4-methoxyphenyl)ethyl]amino}methyl)benzoic acid]
> 10 µM | CCC(c1ccc(C(=O)O)cc1)N(CCc1ccc(OC)cc1C)c1nc2cccc(F)c2s1 (stereo not drawn) [Example 74, 4-(1-{(7-fluorobenzo[d]thiazol-2-yl)[2-(4-methoxy-2-methylphenyl)ethyl]amino}propyl)benzoic acid]
< 1 µM | COc1ccc(CCN(Cc2ccc(C(=O)O)cc2)c2nc3ccc(Cl)c(F)c3s2)cc1 [Example 88, 4-({(6-chloro-7-fluorobenzo[d]thiazol-2-yl)[2-(4-methoxyphenyl)ethyl]amino}methyl)benzoic acid]

The next lines start with the molecule.

Structure (SMILES) | IC50
CCC(C)Oc1ccc(CCN(Cc2ccc(C(=O)O)cc2)c2nc3cccc(F)c3s2)cc1 (stereo not drawn) [Example 30, 4-{[[2-(4-sec-butoxyphenyl)ethyl](7-fluorobenzo[d]thiazol-2-yl)amino]methyl}benzoic acid] | > 10 µM
COc1ccc(CCN(Cc2ccc(C(=O)O)cc2)c2nc3cccc(F)c3s2)c(F)c1 [Example 26, 4-({(7-fluorobenzo[d]thiazol-2-yl)[2-(2-fluoro-4-methoxyphenyl)ethyl]amino}methyl)benzoic acid] | < 1 µM
O=C(O)c1ccc(CN(CCc2cccc(Cl)c2)c2nc3cccc(F)c3s2)cc1 [Example 5, 4-{[[2-(3-chlorophenyl)ethyl](7-fluorobenzo[d]thiazol-2-yl)amino]methyl}benzoic acid] | > 10 µM
CCc1ccc(CCN(Cc2ccc(C(=O)O)cc2)c2nc3cccc(F)c3s2)cc1 [Example 32, 4-({[2-(4-ethylphenyl)ethyl](7-fluorobenzo[d]thiazol-2-yl)amino}methyl)benzoic acid] | < 1 µM
COc1cc(C)c(CCN(Cc2ccc(C(=O)O)cc2)c2nc3cccc(F)c3s2)cc1C [Example 48, 4-({(7-fluorobenzo[d]thiazol-2-yl)[2-(4-methoxy-2,5-dimethylphenyl)ethyl]amino}methyl)benzoic acid] | < 1 µM
COc1ccc(CCN(c2nc3cccc(F)c3s2)C(C)c2ccc(C(=O)O)cc2)cc1C (stereo not drawn) [Example 65, 4-(1-{(7-fluorobenzo[d]thiazol-2-yl)[2-(4-methoxy-3-methylphenyl)ethyl]amino}ethyl)benzoic acid] | < 1 µM
COc1ccc(CCN(c2nc3cccc(F)c3s2)C(C)c2ccc(C(=O)O)cc2)c(F)c1F (stereo not drawn) [Example 60, 4-(1-{[2-(2,3-difluoro-4-methoxyphenyl)ethyl](7-fluorobenzo[d]thiazol-2-yl)amino}ethyl)benzoic acid] | < 1 µM
CC(C)c1ccc(CCN(Cc2ccc(C(=O)O)cc2)c2nc3cccc(F)c3s2)cc1 [Example 33, 4-{[(7-fluorobenzo[d]thiazol-2-yl){2-[4-(propan-2-yl)phenyl]ethyl}amino]methyl}benzoic acid] | > 10 µM
O=C(O)c1ccc(CN(CCc2cccc(F)c2)c2nc3cccc(F)c3s2)cc1 [Example 3, 4-({(7-fluorobenzo[d]thiazol-2-yl)[2-(3-fluorophenyl)ethyl]amino}methyl)benzoic acid] | > 10 µM
COc1cc(C)c(CCN(Cc2ccc(C(=O)O)cc2)c2nc3cccc(F)c3s2)cc1C(C)C [Example 44, 4-{[(7-fluorobenzo[d]thiazol-2-yl){2-[4-methoxy-2-methyl-5-(propan-2-yl)phenyl]ethyl}amino]methyl}benzoic acid] | > 10 µM
CSc1cccc(CCN(Cc2ccc(C(=O)O)cc2)c2nc3cccc(F)c3s2)c1 [Example 13, 4-{[(7-fluorobenzo[d]thiazol-2-yl){2-[3-(methylsulfanyl)phenyl]ethyl}amino]methyl}benzoic acid] | < 1 µM
COc1cc(F)c(CCN(Cc2ccc(C(=O)O)cc2)c2nc3cccc(F)c3s2)c(F)c1 [Example 51, 4-({[2-(2,6-difluoro-4-methoxyphenyl)ethyl](7-fluorobenzo[d]thiazol-2-yl)amino}methyl)benzoic acid] | < 1 µM
CCCOc1ccc(CCN(Cc2ccc(C(=O)O)cc2)c2nc3cccc(F)c3s2)cc1 [Example 10, 4-({(7-fluorobenzo[d]thiazol-2-yl)[2-(4-propoxyphenyl)ethyl]amino}methyl)benzoic acid] | 1 to 10 µM
